Assay [1] can be described thus: Inhibition of protease activity of Clostridium botulinum BoNT/A light chain using 66-mer SNAP-25 as substrate by LC-MS analysis. Conditions: for pIC50: read-out: IC50; call rule not given here.
In another assay the test system is Clostridium botulinum. In words: Inhibition of protease activity of Clostridium botulinum BoNT/A light chain using 66-mer SNAP-25 as substrate by LC-MS analysis relative to control. Conditions: concentration not given here.

pIC50: −log10 of the molar value.

As usually defined, the pIC50 is the negative decadic logarithm of the IC50, by convention in mol/L. A word on the inhibition: it is the relative decrease from the control value, in per cent. Read a low inhibition as a response near the control. On to `O=C(/C=C/c1ccc(O)c(O)c1)OC[C@@H]1C[C@@H]1COC(=O)/C=C/c1ccc(O)c(O)c1`, for which the pIC50 in assay [1] is 6.89. Besides, in the assay with Clostridium botulinum, the inhibition stood at 75%.
With `O=C(/C=C/c1ccc(CO)cc1)Oc1ccccc1OC(=O)/C=C/c1ccc(CO)cc1`, the IC50 result in assay [1] is given as “Not Active”.
Take `CC(=O)Oc1ccc(/C=C/C(=O)Oc2ccccc2OC(=O)/C=C/c2ccc(OC(C)=O)c(OC(C)=O)c2)cc1OC(C)=O`: the IC50 entry in assay [1] is “Not Active”.
For `O=C(/C=C/c1ccc(O)c(O)c1)OC/C=C\COC(=O)/C=C/c1ccc(O)c(O)c1`, the pIC50 in assay [1] is 6.35.
With `O=C(Oc1ccccc1OC(=O)c1ccc(O)c(O)c1)c1ccc(O)c(O)c1`, in assay [1], the pIC50 was below 4.70.
Turning to `O=C(/C=C/c1ccc(O)c(O)c1)OCc1ccccc1OC(=O)/C=C/c1ccc(O)c(O)c1`, the negative-log IC50 (pIC50) in assay [1] was 6.85.
Turning to `CC(C)(C)C(COC(=O)/C=C/c1ccc(O)c(O)c1)COC(=O)/C=C/c1ccc(O)c(O)c1`, the pIC50 in assay [1] is 6.89.
With `O=Cc1ccc(/C=C/C(=O)Oc2ccccc2OC(=O)/C=C/c2ccc(C=O)cc2)cc1`, the IC50 result in assay [1] is recorded as “Not Active”.
In the case of `O=C(/C=C/c1ccc(O)c(O)c1)Nc1ccccc1NC(=O)/C=C/c1ccc(O)c(O)c1`, in assay [1], the negative-log IC50 (pIC50) was 5.48.
As for `CC(C)OC(=O)[C@H](OC(=O)/C=C/c1ccc(O)c(O)c1)[C@@H](OC(=O)/C=C/c1ccc(O)c(O)c1)C(=O)OC(C)C`, the pIC50 in assay [1] is 5.57.
Consider `O=C(/C=C/c1ccc(O)c(O)c1)Oc1ccccc1OC(=O)/C=C/c1ccc(O)c(O)c1`, for which the pIC50 in assay [1] was 6.31. The compound further registered an inhibition with Clostridium botulinum of 96%.
As for `O=C(/C=C/c1ccc(O)c(O)c1)O[C@H]1CCC[C@H]1OC(=O)/C=C/c1ccc(O)c(O)c1`, the pIC50 in assay [1] was 5.62.
Take `NCCc1ccc(OC(=O)c2ccc(O)c(O)c2)c(OC(=O)c2ccc(O)c(O)c2)c1`: the IC50 entry in assay [1] is “Not Active”.
As to `O=C(/C=C/c1cccc(O)c1)Oc1ccccc1OC(=O)/C=C/c1cccc(O)c1`, the pIC50 in assay [1] is below 4.70.
As to `O=C(/C=C/c1ccc(O)c(O)c1)Oc1cc2c(cc1OC(=O)/C=C/c1ccc(O)c(O)c1)OCCO2`, the pIC50 in assay [1] was 6.52.
Take `O=C(/C=C/c1ccc(O)c(O)c1)Oc1cccc(OC(=O)/C=C/c2ccc(O)c(O)c2)c1`: in assay [1], the pIC50 was 6.25.
Same read-out and setting: under `O=C(/C=C/c1ccc(O)c(O)c1)O[C@@H]1CCCCC[C@H]1OC(=O)/C=C/c1ccc(O)c(O)c1` stands 5.49; under `O=C(/C=C/c1ccc(O)c(O)c1)OCC#CCOC(=O)/C=C/c1ccc(O)c(O)c1`, 6.39.
On to `O=C(Oc1ccccc1OC(=O)c1ccc(O)cc1)c1ccc(O)cc1`, for which, in assay [1], the pIC50 was 5.02.
Consider `O=C(/C=C/c1ccc(O)c(O)c1)O[C@H]1CCCC[C@H]1OC(=O)/C=C/c1ccc(O)c(O)c1`, for which the pIC50 in assay [1] is 5.49.
Take `O=C(/C=C/c1ccc(O)c(O)c1)OCc1ccccc1COC(=O)/C=C/c1ccc(O)c(O)c1`: the pIC50 in assay [1] is 5.96.
Take `COC(=O)c1ccc(OC(=O)/C=C/c2ccc(O)c(O)c2)c(OC(=O)/C=C/c2ccc(O)c(O)c2)c1`: the pIC50 in assay [1] is 6.41.
Regarding `O=C(/C=C/c1ccc(O)c(O)c1)OC[C@H]1CC[C@H]1COC(=O)/C=C/c1ccc(O)c(O)c1`, the negative logarithm of the IC50 (pIC50) in assay [1] is 5.77.
In the assay on Clostridium botulinum, `O=C(/C=C/c1ccc(O)c(O)c1)O[C@@H](C(=O)O)[C@@H](OC(=O)/C=C/c1ccc(O)c(O)c1)C(=O)O` registered an inhibition of 64%.
As for `O=C(/C=C/c1ccc(O)c(O)c1)Oc1cccc2cccc(OC(=O)/C=C/c3ccc(O)c(O)c3)c12`, in assay [1], the pIC50 is 7.30.
With `O=C(/C=C/c1ccc([N+](=O)[O-])cc1)Oc1ccccc1OC(=O)/C=C/c1ccc([N+](=O)[O-])cc1`, the IC50 result in assay [1] is reported as “Not Active”.

These data come from ChEMBL document CHEMBL4177617 (Bioorg Med Chem Lett, 2017).
